Data taken from US20260015357A1, “MODULATORS OF NLRP3 INFLAMMASOME AND RELATED PRODUCTS AND METHODS” (Neumora Therapeutics, Inc., priority 2022, published 2026).
pIC50: −log10 of the molar value.

How the values were obtained:
IL-6 = IL-6 in supernatants of LPS-primed, nigericin-treated THP1 macrophages, Hu IL-6 AlphaLISA; format: cell-based; conditions: Homo sapiens, THP-1, PMA-differentiated, 1 hr compound, Nigericin 6.7 uM 3 hrs, IL-6 in supernatant
Protocol: (§1) NLRP3 Inflammasome Activation and Cell Viability Assessment in THP1 Macrophages
(§2) THP1—Human acute monocytic leukemia cells were cultured (ATCC, cat #TIB-202) in Gibco RPMI-1640 medium (ThermoFisher cat #72400054) supplemented with 10% Heat Inactivated FBS at density between 3-8×10^5 viable cells/mi. The cells were then subcultured when the cell concentration reached 8×10^5 cells/mL (every 2-3 days).
(§3) The parameter wells were filled with 50 ul PBS and incubated at 37° C., 5% CO2 for 48 hrs.
(§4) After 48 hrs incubation, the PMA containing media was removed, and changed for 40 ul/well of fresh DMEM, 10% FBS, 1× GlutaMax and incubated at 37° C., 5% CO2 for 24 hrs.
(§5) The following day the cells were primed with LPS (E. coli) (Sigma, cat #L3129) […] in DMEM, 10% FBS, 1× GlutaMax for 3 hrs at 37° C., 5% CO2.
(§6) Following the LPS priming step, the cells were treated with compounds at 10 uM top final concentration, 1:4 dilution, 8 times: (10 uM, 2.5 uM, 0.625 uM, 0.156 uM, 0.039 uM, 0.0097 uM, 0.0024 uM, 0.0006 uM). DMSO was used as a vehicle control, and MCC950 (InvivoGen, cat #inh-mcc) was used at 1 uM as a positive control, and incubated for 1 hrs at 37° C., 5% CO2.
(§7) Following the 1 hr compound incubation, the NLRP3 inflammasome activation step was conducted by treating cells with Nigericin (InvivoGen, cat #tlrl-nig) at 6.7 uM final concentration for 3 hrs at 37° C., 5% CO2.
(§8) Thereafter, 30 ul samples of cells' supernatants were collected for cytokine analysis which was conducted on Hu IL-1β AlphaLISA (Perkin Elmer, cat #AL220C) and Hu IL-6 AlphaLISA (Perkin Elmer, cat #AL220C). The cells' viability was assessed by performing CellTiter-Glo Luminescent Assay (Promega, cat #G7572) according to the manufacturer's protocol.

NLRP3 inflammasome = target: T1, NLRP3 inflammasome (Homo sapiens, UniProt Q96P20); assay: NLRP3 inflammasome activation in LPS-primed, nigericin-activated THP1 macrophages, IL-1β AlphaLISA; format: cell-based; conditions: PMA-differentiated, 1 hr compound, Nigericin 6.7 uM 3 hrs, IL-1β in supernatant
T1 construct: host or cells: THP1 human acute monocytic leukemia cells, PMA-differentiated, LPS-primed
T1 sequence (Q96P20 whole entry): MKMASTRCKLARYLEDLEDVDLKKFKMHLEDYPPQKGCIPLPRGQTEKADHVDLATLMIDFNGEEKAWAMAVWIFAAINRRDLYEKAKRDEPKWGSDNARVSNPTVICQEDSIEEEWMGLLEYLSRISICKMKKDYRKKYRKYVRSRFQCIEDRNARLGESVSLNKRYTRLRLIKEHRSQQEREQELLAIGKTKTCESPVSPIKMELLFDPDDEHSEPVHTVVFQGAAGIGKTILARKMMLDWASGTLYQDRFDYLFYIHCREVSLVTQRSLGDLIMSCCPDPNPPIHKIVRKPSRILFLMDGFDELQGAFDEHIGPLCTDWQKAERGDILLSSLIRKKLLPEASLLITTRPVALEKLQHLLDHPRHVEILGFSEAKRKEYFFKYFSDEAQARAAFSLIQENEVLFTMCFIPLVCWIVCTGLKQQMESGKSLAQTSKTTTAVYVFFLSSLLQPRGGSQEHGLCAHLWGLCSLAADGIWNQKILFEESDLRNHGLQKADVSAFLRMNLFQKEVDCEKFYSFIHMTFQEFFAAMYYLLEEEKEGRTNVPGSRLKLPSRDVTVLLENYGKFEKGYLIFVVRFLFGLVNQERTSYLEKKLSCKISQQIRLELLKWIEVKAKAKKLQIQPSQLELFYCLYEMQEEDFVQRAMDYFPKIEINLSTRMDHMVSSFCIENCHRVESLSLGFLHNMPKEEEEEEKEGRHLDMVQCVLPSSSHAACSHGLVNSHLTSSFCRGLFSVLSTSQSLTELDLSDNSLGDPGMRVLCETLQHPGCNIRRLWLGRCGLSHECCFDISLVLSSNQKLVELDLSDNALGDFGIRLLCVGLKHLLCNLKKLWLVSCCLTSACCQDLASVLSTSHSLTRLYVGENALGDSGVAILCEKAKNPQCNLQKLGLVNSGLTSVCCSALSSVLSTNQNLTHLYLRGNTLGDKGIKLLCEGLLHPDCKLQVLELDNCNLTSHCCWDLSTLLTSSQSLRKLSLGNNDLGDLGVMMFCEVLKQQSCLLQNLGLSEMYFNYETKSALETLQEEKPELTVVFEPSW
Protocol: as §1, §2, §3, §4, §5, §6, §7, §8

Compound | pIC50 (IL-6) | pIC50 (NLRP3 inflammasome)
CN1CCC[C@@H](Nc2nnc(-c3ccc(C(F)(F)F)cc3)c3cc[nH]c23)C1 (single isomer, unassigned) [Compound 1] | 5.30 to 6.00 | > 8.00
CN1CCC[C@@H](Nc2nnc(-c3ccc(C(F)(F)F)cc3)c3[nH]ccc23)C1 (single isomer, unassigned) [Compound 2] | ≤ 5.00 | 6.30 to 7.00
CN1CCC[C@@H](Nc2nnc(-c3ccccc3O)c3ccn(C)c23)C1 (single isomer, unassigned) [Compound 17] | ≤ 5.00 | 7.00 to 8.00
CN1CCC[C@@H](N(C)c2nnc(-c3ccccc3O)c3cc[nH]c23)C1 (single isomer, unassigned) [Compound 24] | 5.00 to 5.30 | 6.30 to 7.00
CN1CCC[C@@H](Nc2nnc(-c3ccccc3O)c3c2ccn3C)C1 (single isomer, unassigned) [Compound 67] | ≤ 5.00 | 7.00 to 8.00
CN1CCC[C@@H](N(C)c2nnc(-c3ccccc3O)c3[nH]ccc23)C1 (single isomer, unassigned) [Compound 68] | 5.00 to 5.30 | ≤ 5.00
Cc1cc(C(F)(F)F)ccc1-c1nnc(N[C@@H]2CCCN(C)C2)c2cc[nH]c12 [Compound 3] | ≤ 5.00 | 6.00 to 6.30
CN1CCC[C@@H](Nc2nnc(-c3ccc(F)cc3O)c3cc[nH]c23)C1 [Compound 4] | 5.00 to 5.30 | > 8.00
CN1CCC[C@@H](Nc2nnc(-c3ccc(F)cc3)c3cc[nH]c23)C1 [Compound 5] | 5.30 to 6.00 | 7.00 to 8.00
Cc1cc(C(F)(F)F)ccc1-c1nnc(N[C@@H]2CCCN(C)C2)c2[nH]ccc12 [Compound 6] | 5.00 to 5.30 | > 8.00
CN1CCC[C@@H](Nc2nnc(-c3ccc(F)cc3O)c3[nH]ccc23)C1 [Compound 7] | ≤ 5.00 | 6.30 to 7.00
CN1CCC[C@@H](Nc2nnc(-c3ccccc3O)c3[nH]ccc23)C1 [Compound 8] | ≤ 5.00 | 6.30 to 7.00
CN1CCC[C@@H](Nc2nnc(-c3ccc(F)cc3)c3[nH]ccc23)C1 [Compound 9] | ≤ 5.00 | ≤ 5.00
CN1CCC[C@@H](Nc2nnc(-c3ccc(Cl)cc3)c3cc[nH]c23)C1 [Compound 10] | 5.30 to 6.00 | 7.00 to 8.00
CN1CCC[C@@H](Nc2nnc(-c3ccc(Cl)cc3)c3[nH]ccc23)C1 [Compound 11] | ≤ 5.00 | 5.00 to 6.00
CN1CCC[C@@H](Nc2nnc(-c3ccccc3C(F)F)c3cc[nH]c23)C1 [Compound 12] | ≤ 5.00 | 6.30 to 7.00
CN1CCC[C@@H](Nc2nnc(-c3ccccc3C(F)F)c3[nH]ccc23)C1 [Compound 13] | ≤ 5.00 | ≤ 5.00
CN1CCC[C@@H](Nc2nnc(-c3ccccc3O)c3cc[nH]c23)C1 [Compound 14] | – | > 8.00
CN1CCC[C@@H](Nc2nnc(-c3ccccc3)c3cc[nH]c23)C1 [Compound 15] | – | 6.00 to 6.30

Compound | pIC50 (IL-6) | pIC50 (NLRP3 inflammasome)
CN1CCC[C@@H](N(C)c2nnc(-c3ccccc3O)c3ccn(C)c23)C1 [Compound 18] | 5.30 to 6.00 | 5.00 to 6.00
CN1C[C@H](Nc2nnc(-c3ccc(C(F)(F)F)cc3)c3cc[nH]c23)CC(F)(F)C1 [Compound 19] | 5.00 to 5.30 | 6.30 to 7.00
CN1CCC[C@@H](Nc2nnc(-c3ccc(C(F)(F)F)cc3)c3nc[nH]c23)C1 [Compound 20] | ≤ 5.00 | 6.00 to 6.30
Cc1cc2c(-c3ccc(C(F)(F)F)cc3)nnc(N[C@@H]3CCCN(C)C3)c2[nH]1 [Compound 21] | ≤ 5.00 | > 8.00
Cc1cc(-c2nnc(N[C@@H]3CCCN(C)C3)c3[nH]ccc23)ccc1C(F)(F)F [Compound 23] | 5.00 to 5.30 | 5.00 to 6.00
CN1CCC[C@@H](N(C)c2nnc(-c3ccc(C(F)(F)F)cc3)c3cc[nH]c23)C1 [Compound 25] | ≤ 5.00 | 6.30 to 7.00
CN1CCC[C@@H](Nc2nnc(-c3ccc(C(F)(F)F)cc3)c3ccn(C)c23)C1 [Compound 26] | 5.00 to 5.30 | 7.00 to 8.00
CN1CCC[C@@H](N(C)c2nnc(-c3ccc(C(F)(F)F)cc3)c3ccn(C)c23)C1 [Compound 27, (R)—N,1-dimethyl-N-(1-methylpiperidin-3-yl)-4-(4-(trifluoromethyl)phenyl)-1H-pyrrolo[2,3-d]pyridazin-7-amine] | ≤ 5.00 | 5.00 to 6.00
CN1CCC[C@@H](Nc2nnc(-c3ccc(C(F)(F)F)cc3)c3c2ncn3C)C1 [Compound 29] | ≤ 5.00 | 6.00 to 6.30
CN1CCC[C@@H](Nc2nnc(-c3ccc(C(F)(F)F)cc3)c3ncn(C)c23)C1 [Compound 30] | ≤ 5.00 | 5.00 to 6.00
CN1CCC[C@@H](Nc2nnc(-c3ccc(C(F)(F)F)cc3)c3cnn(C)c23)C1 [Compound 31] | ≤ 5.00 | 7.00 to 8.00
CN1CCC[C@@H](Nc2nnc(-c3ccc(C(F)(F)F)cc3)c3c2cnn3C)C1 [Compound 32] | ≤ 5.00 | > 8.00
CN1CCC[C@@H](Oc2nnc(-c3ccc(C(F)(F)F)cc3)c3cc[nH]c23)C1 [Compound 39] | 5.00 to 5.30 | 6.30 to 7.00
CN1CCC[C@@H](Nc2nnc(-c3ccc(C(F)(F)F)cc3)c3ccoc23)C1 [Compound 53] | ≤ 5.00 | 7.00 to 8.00
CN1CCC[C@@H](Nc2nnc(-c3ccc(C(F)(F)F)cc3)c3occc23)C1 [Compound 54] | 5.30 to 6.00 | 6.30 to 7.00
CN1CCC[C@@H](Nc2nnc(-c3ccc(C(F)(F)F)cc3)c3c2OCC3)C1 [Compound 58] | ≤ 5.00 | 6.30 to 7.00
CN1CCC[C@@H](Nc2nnc(-c3ccc(C(F)(F)F)cc3)c3c2CCO3)C1 [Compound 59] | ≤ 5.00 | ≤ 5.00
CN1CCC[C@@H](Nc2nnc(-c3ccc(C(F)(F)F)cc3)c3ccsc23)C1 [Compound 61] | ≤ 5.00 | 7.00 to 8.00
CN1CCC[C@@H](Nc2nnc(-c3ccc(C(F)(F)F)cc3)c3sccc23)C1 [Compound 62] | 5.30 to 6.00 | 7.00 to 8.00

Compound | pIC50 (IL-6) | pIC50 (NLRP3 inflammasome)
CN1CCC[C@@H](Nc2nnc(-c3ccc(C(F)(F)F)cc3)c3cnsc23)C1 [Compound 63, (R)—N-(1-methylpiperidin-3-yl)-4-(4-(trifluoromethyl)phenyl)isothiazolo[4,5-d]pyridazin-7-amine] | 5.00 to 5.30 | 7.00 to 8.00
CN1CCC[C@@H](Nc2nnc(-c3ccc(C(F)(F)F)cc3)c3sncc23)C1 [Compound 64] | 5.00 to 5.30 | 7.00 to 8.00
CN1CCC[C@@H](Nc2nnc(-c3ccc(C(F)(F)F)cc3)c3c2CCC3)C1 [Compound 65] | 5.00 to 5.30 | > 8.00
Cc1cc(-c2nnc(N[C@@H]3CCCN(C)C3)c3cc[nH]c23)ccc1C(F)(F)F [Compound 66] | ≤ 5.00 | ≤ 5.00
CN1CCC[C@@H](Nc2nnc(-c3ccc(C(F)(F)F)cc3)c3c2ccn3C)C1 [Compound 69] | – | 7.00 to 8.00
CN1CCC[C@@H](Nc2nnc(-c3ccccc3)c3[nH]ccc23)C1 [Compound 70] | – | ≤ 5.00
CN1CCC[C@@H](N(C)c2nnc(-c3ccc(C(F)(F)F)cc3)c3c2ccn3C)C1 [Compound 71] | ≤ 5.00 | 5.00 to 6.00
CN1CCC[C@@H](N(C)c2nnc(-c3ccc(C(F)(F)F)cc3)c3[nH]ccc23)C1 [Compound 72] | ≤ 5.00 | 5.00 to 6.00
Cc1c[nH]c2c(N[C@@H]3CCCN(C)C3)nnc(-c3ccc(F)cc3)c12 [Compound 73] | ≤ 5.00 | 6.30 to 7.00
Cc1c[nH]c2c(-c3ccc(F)cc3)nnc(N[C@@H]3CCCN(C)C3)c12 [Compound 74] | ≤ 5.00 | ≤ 5.00
Cc1cc2c(N[C@@H]3CCCN(C)C3)nnc(-c3ccc(C(F)(F)F)cc3)c2[nH]1 [Compound 75] | ≤ 5.00 | 5.00 to 6.00
CN1CCC[C@@H](Nc2nnc(-c3ncc(C#N)cc3O)c3cnn(C)c23)C1 [Compound 114] | – | 7.00 to 8.00
CN1CCC[C@@H](Nc2nnc(-c3ccc(C#N)cc3C(F)F)c3ccn(C)c23)C1 [Compound 120] | – | 6.30 to 7.00
CN1CCC[C@@H](Nc2nnc(-c3ccc(C(F)(F)F)cc3C(F)F)c3ccn(C)c23)C1 [Compound 122] | – | > 8.00
Cc1cc(C#N)ccc1-c1nnc(N[C@@H]2CCCN(C)C2)c2c1ccn2C [Compound 125] | – | 7.00 to 8.00
CN1CCC[C@@H](Nc2nnc(-c3ncc(C#N)cc3O)c3ccn(C)c23)C1 [Compound 135] | – | ≤ 5.00
CN1CCC[C@@H](Nc2nnc(-c3ncc(C#N)cc3Cl)c3cnn(C)c23)C1 [Compound 140] | – | 5.00 to 6.00
N#Cc1ccc(-c2nnc(N[C@@H]3CCCN(CCF)C3)c3sncc23)c(O)c1 [Compound 150] | – | 7.00 to 8.00
